# Laboratory results taken from US11612606B2, “8-aminoisoquinoline compounds and uses thereof” (priority 2018, dated 2023).
# Molecular target: HPK full length, T165E S171E (Homo sapiens (Human), UniProt Q92918, S171E/T165E)
# Assay: HPK1-FL HTRF enzymatic assay ("HTRF")
# Assay type: biochemical
# Details: ATP 1 mM, read-out: HPK1 Ki
# Summary of the method: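 Full-length HPK1 (T165E/S171E) was preincubated 30 min with compound, then reacted 60 min with biotin-SLP-76 and 1 mM ATP. Phospho-SLP-76 was detected by HTRF (Eu-anti-pSLP76 antibody, SA-XL665) after a further 60 min.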
# Chain of HPK full length, T165E S171E (Q92918 whole entry T165E/S171E, looked up): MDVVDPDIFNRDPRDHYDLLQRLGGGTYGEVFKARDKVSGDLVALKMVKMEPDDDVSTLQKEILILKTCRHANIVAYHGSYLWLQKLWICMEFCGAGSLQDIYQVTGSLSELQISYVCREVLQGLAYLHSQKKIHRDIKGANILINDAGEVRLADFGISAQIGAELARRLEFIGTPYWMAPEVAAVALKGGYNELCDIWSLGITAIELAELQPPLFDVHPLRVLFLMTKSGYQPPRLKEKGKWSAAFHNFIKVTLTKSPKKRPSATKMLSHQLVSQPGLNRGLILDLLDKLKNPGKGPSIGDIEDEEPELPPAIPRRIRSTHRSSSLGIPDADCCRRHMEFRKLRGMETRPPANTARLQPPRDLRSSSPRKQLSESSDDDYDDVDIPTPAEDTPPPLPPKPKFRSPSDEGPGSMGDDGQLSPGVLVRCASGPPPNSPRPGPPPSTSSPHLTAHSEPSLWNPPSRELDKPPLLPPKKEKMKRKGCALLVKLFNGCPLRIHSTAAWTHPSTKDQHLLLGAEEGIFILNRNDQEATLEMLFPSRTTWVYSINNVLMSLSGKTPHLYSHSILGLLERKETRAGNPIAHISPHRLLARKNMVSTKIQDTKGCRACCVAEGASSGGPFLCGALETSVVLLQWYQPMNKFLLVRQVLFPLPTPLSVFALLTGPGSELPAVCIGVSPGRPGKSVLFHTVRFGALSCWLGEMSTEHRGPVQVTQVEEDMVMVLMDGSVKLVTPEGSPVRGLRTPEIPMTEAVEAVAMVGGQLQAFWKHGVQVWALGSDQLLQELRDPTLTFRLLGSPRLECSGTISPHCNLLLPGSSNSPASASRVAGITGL
row,SMILES,Ki [nM]
1,"Cc1c(-c2cc3cc(NC(=O)OC4CCN(C)CC4)ncc3c(N)c2F)cnc2c1NCCO2 [Compound 407, 1-Methylpiperidin-4-yl (8-amino-7-fluoro-6-(8-methyl-2,3-dihydro-1H-pyrido[2,3-b][1,4]oxazin-7-yl)isoquinolin-3-yl)carbamate]",0.03
2,"Cc1c(-c2cc3cc(NC(=O)O[C@H]4CCC(=O)N(C)C4)ncc3c(N)c2F)cnc2c1NCCO2 [Compound 409a, (S)-1-Methyl-6-oxopiperidin-3-yl (8-amino-7-fluoro-6-(8-methyl-2,3-dihydro-1H-pyrido[2,3-b][1,4]oxazin-7-yl)isoquinolin-3-yl)carbamate]",0.053
3,"Cc1c(-c2cc3cc(NC(=O)O[C@@H]4CCN(C)C4)ncc3c(N)c2F)cnc2c1NCCO2 [Compound 411b, (R)-1-Methylpyrrolidin-3-yl (8-amino-7-fluoro-6-(8-methyl-2,3-dihydro-1H-pyrido[2,3-b][1,4]oxazin-7-yl)isoquinolin-3-yl)carbamate]",0.2
4,"Cc1c(-c2cc3cc(NC(=O)OC4CCOCC4)ncc3c(N)c2F)cnc2c1NCCC2O (stereo not drawn) [Compound 413, Tetrahydro-2H-pyran-4-yl (8-amino-7-fluoro-6-(8-hydroxy-4-methyl-5,6,7,8-tetrahydro-1,5-naphthyridin-3-yl)isoquinolin-3-yl)carbamate]",0.65
5,"Cc1c(-c2cc3cc(NC(=O)O[C@H]4CCCN(C)C4)ncc3c(N)c2F)cnc2c1NCCO2 [Compound 416b, (5)-1-Methylpiperidin-3-yl (8-amino-7-fluoro-6-(8-methyl-2,3-dihydro-1H-pyrido[2,3-b][1,4]oxazin-7-yl)isoquinolin-3-yl)carbamate]",0.075
6,"Cc1c(-c2cc3cc(NC(=O)OC4CC5(C4)CN(C)C5)ncc3c(N)c2F)cnc2c1NCCO2 [Compound 417, 2-Methyl-2-azaspiro[3.3]heptan-6-yl (8-amino-7-fluoro-6-(8-methyl-2,3-dihydro-1H-pyrido[2,3-b][1,4]oxazin-7-yl)isoquinolin-3-yl)carbamate]",< 0.013
7,"Cc1c(-c2cc3cc(NC(=O)OC4CN(C(C)C)C4)ncc3c(N)c2F)cnc2c1NCCO2 [Compound 419, (1-Isopropylazetidin-3-yl) N-[8-amino-7-fluoro-6-(8-methyl-2,3-dihydro-1H-pyrido[2,3-b][1,4]oxazin-7-yl)-3-isoquinolyl]carbamate]",0.061
8,"Cc1c(-c2cc3cc(NC(=O)OC4CN(CC(F)(F)F)C4)ncc3c(N)c2F)cnc2c1NCCO2 [Compound 420, 1-(2,2,2-Trifluoroethyl)azetidin-3-yl (8-amino-7-fluoro-6-(8-methyl-2,3-dihydro-1H-pyrido[2,3-b][1,4]oxazin-7-yl)isoquinolin-3-yl)carbamate]",< 0.013
9,"Cc1c(-c2cc3cc(NC(=O)OC4CCN(C5COC5)CC4)ncc3c(N)c2F)cnc2c1NCCO2 [Compound 421, 1-(Oxetan-3-yl)piperidin-4-yl (8-amino-7-fluoro-6-(8-methyl-2,3-dihydro-1H-pyrido[2,3-b][1,4]oxazin-7-yl)isoquinolin-3-yl)carbamate]",< 0.013
10,"Cc1c(-c2cc3cc(NC(=O)OC4CCN(CC(F)(F)F)CC4)ncc3c(N)c2F)cnc2c1NCCO2 [Compound 422, 1-(2,2,2-Trifluoroethyl)piperidin-4-yl (8-amino-7-fluoro-6-(8-methyl-2,3-dihydro-1H-pyrido[2,3-b][1,4]oxazin-7-yl)isoquinolin-3-yl)carbamate]",0.023
11,"Cc1c(-c2cc3cc(NC(=O)OC4CC5(CCN(C)CC5)C4)ncc3c(N)c2F)cnc2c1NCCC2 [Compound 423, (7-Methyl-7-azaspiro[3.5]nonan-2-yl) N-[8-amino-7-fluoro-6-(4-methyl-5,6,7,8-tetrahydro-1,5-naphthyridin-3-yl)-3-isoquinolyl]carbamate]",< 0.013
12,"CC(=O)N1CC2(CC(OC(=O)Nc3cc4cc(-c5cnc6c(c5C)NCCO6)c(F)c(N)c4cn3)C2)C1 [Compound 424, 2-Acetyl-2-azaspiro[3.3]heptan-6-yl (8-amino-7-fluoro-6-(8-methyl-2,3-dihydro-1H-pyrido[2,3-b][1,4]oxazin-7-yl)isoquinolin-3-yl)carbamate]",< 0.013
13,"Cc1c(-c2cc3cc(NC(=O)OC4CC5(C4)CN(C)C5)ncc3c(N)c2F)cnc2c1NCCC2 [Compound 425, 2-Methyl-2-azaspiro[3.3]heptan-6-yl (8-amino-7-fluoro-6-(4-methyl-5,6,7,8-tetrahydro-1,5-naphthyridin-3-yl)isoquinolin-3-yl)carbamate]",< 0.013
14,"CC(=O)N1CC(OC(=O)Nc2cc3cc(-c4cnc5c(c4C)NCCO5)c(F)c(N)c3cn2)C1 [Compound 426, (1-Acetylazetidin-3-yl) N-[8-amino-7-fluoro-6-(8-methyl-2,3-dihydro-1H-pyrido[2,3-b][1,4]oxazin-7-yl)-3-isoquinolyl]carbamate]",< 0.013
15,"Cc1c(-c2cc3cc(NC(=O)OC4CC5(CCN(C)CC5)C4)ncc3c(N)c2F)cnc2c1NCCO2 [Compound 427, 7-Methyl-7-azaspiro[3.5]nonan-2-yl (8-amino-7-fluoro-6-(8-methyl-2,3-dihydro-1H-pyrido[2,3-b][1,4]oxazin-7-yl)isoquinolin-3-yl)carbamate]",< 0.013
16,"Cc1c(-c2cc3cc(NC(=O)OC4CC5(CCN(C)C5)C4)ncc3c(N)c2F)cnc2c1NCCO2 (stereo not drawn) [Compound 428, 6-Methyl-6-azaspiro[3.4]octan-2-yl (8-amino-7-fluoro-6-(8-methyl-2,3-dihydro-1H-pyrido[2,3-b][1,4]oxazin-7-yl)isoquinolin-3-yl)carbamate]",< 0.013
17,"CC(=O)N1CC(OC(=O)Nc2cc3cc(-c4cnc5c(c4C)NCCC5)c(F)c(N)c3cn2)C1 [Compound 429, 1-Acetylazetidin-3-yl (8-amino-7-fluoro-6-(4-methyl-5,6,7,8-tetrahydro-1,5-naphthyridin-3-yl)isoquinolin-3-yl)carbamate formic acid]",0.028
18,"Cc1c(-c2cc3cc(NC(=O)OC4CC5(CCN(C6COC6)CC5)C4)ncc3c(N)c2F)cnc2c1NCCC2 [Compound 430, 7-(Oxetan-3-yl)-7-azaspiro[3.5]nonan-2-yl (8-amino-7-fluoro-6-(4-methyl-5,6,7,8-tetrahydro-1,5-naphthyridin-3-yl)isoquinolin-3-yl)carbamate]",< 0.013
19,"Cc1c(-c2cc3cc(NC(=O)OC4C5CC4CN(C)C5)ncc3c(N)c2F)cnc2c1NCCO2 (stereo not drawn) [Compound 431, 3-Methyl-3-azabicyclo[3.1.1]heptan-6-yl (8-amino-7-fluoro-6-(8-methyl-2,3-dihydro-1H-pyrido[2,3-b][1,4]oxazin-7-yl)isoquinolin-3-yl)carbamate]",2.3
20,"Cc1c(-c2cc3cc(NC(=O)O[C@H]4[C@@H]5CN(C)C[C@@H]54)ncc3c(N)c2F)cnc2c1NCCO2 [Compound 432a, (1R,5S,6s)-3-Methyl-3-azabicyclo[3.1.0]hexan-6-yl (8-amino-7-fluoro-6-(8-methyl-2,3-dihydro-1H-pyrido[2,3-b][1,4]oxazin-7-yl)isoquinolin-3-yl)carbamate]",< 0.013
21,"Cc1c(-c2cc3cc(NC(=O)OC4CN(CC(F)F)C4)ncc3c(N)c2F)cnc2c1NCCO2 [Compound 434, 1-(2,2-Difluoroethyl)azetidin-3-yl (8-amino-7-fluoro-6-(8-methyl-2,3-dihydro-1H-pyrido[2,3-b][1,4]oxazin-7-yl)isoquinolin-3-yl)carbamate]",< 0.013
